{
  "source": "patent US5023270A",
  "about": "“Antidepressant method of use” (priority 1988, dated 1991)",
  "key": {"plasma melatonin [1]": {"system": "plasma melatonin", "conditions": "cited from earlier work"}, "rabbits": {"system": "rabbits", "test": "Long-term toxicity, ingestive intake", "assay_type": "in vivo", "conditions": "300 mg/kg daily, 42 consecutive days", "excerpt": "The general, long-term toxicity of 5-MOP was also investigated in rabbits treated by ingestion and dermal application, with the following results: […]"}, "[2]": {"system": "major depressive disorder", "test": "Clinical study of antidepressant effect (17 HDRS items), major depressive disorder", "assay_type": "in vivo, human", "method": "Experimental verification of the clinical effects of 5-MOP on depressive patients was performed on 24 physically sane subjects (11 men and 13 women), suffering from a major depressive disorder.\nChosen patients afflicted with a major depressive disorder according to DSM III were given no treatment 4 days prior to the experiment, except for 5 mg nitrazepam in the evening.\nThe patients were divided into two groups. The first group was treated with a single daily dose of 40 mg 5-MOP during a week, administered orally at 9:00 p.m. The second group was given placebos, double blindly, under identical conditions.\nTo prevent any parallel effects due to the photosensitive properties of 5-MOP, patients were not exposed to ultraviolet (UV) radiation during nine hours following 5-MOP intake (corresponding to their sleep period).\nAfter a week of treatment with 5-methoxypsoralen or placebos, clinical results were established for each patient group, and compared using the Wilcoxon test (W) within groups and the Mann-Whitney test (U) between groups."}, "plasma melatonin [3]": {"system": "plasma melatonin", "test": "Plasma melatonin in psychiatric patients and control subjects after a single oral dose of 5-MOP", "assay_type": "in vivo, human", "conditions": "for Delta Melatonin: 11:00 p.m. minus 8:00 p.m. baseline, 40 mg oral; for Melatonin (11:00 p.m.): 3 h after 40 mg oral 5-MOP, mean ± SEM", "method": "FIG. 1 is a bar histogram which depicts the plasma melatonin levels in six diverse groups of human subjects before and after treatment with a single dose of 40 mg 5-methoxypsoralen (5-MOP) administered orally to each subject at 8:00 p.m. The subjects were maintained in total darkness or under weak illumination (without UV) for at least 9 hours after 5-MOP intake (corresponding to the sleep period). Blood samples were taken at 8:00 p.m. prior to 5-MOP administration and at 11:00 p.m. (see text for full description of experimental details). Plasma melatonin levels were evaluated by radioimmunology after extraction in diethylether using the method of Treifenaueret, Andres. Melatonin levels were established and compared with each group of subjects with similar age means using paired t-tests and between groups using unpaired t-tests. \" -melatonin is defined as the difference between plasma melatonin levels (nmd/1) after 5-MOP uptake (3 hours after administration and =before 5-MOP administration; =after 5-MOP uptake. (p=significance of difference between the two values. )\nThe experiment was performed on six groups of human subjects.\nControl groups 1, 2 and 3 comprised respectively:\nGroup 1: 13 elderly, sane subjects (7 women, 6 men).\nGroup 2: 13 middle-aged, sane subjects (6 women, 7 men).\nGroup 3: 13 young, sane subjects (6 women, 7 men).\nThese subjects had been contacted for welfare or minor nervous problems, but were free from major psychiatric disorders or organic illnesses. Most aged subjects were waiting for admission to nursing homes.\nThese elderly patients had no major cardiac, hepatic, renal, endocrineous or osseous disorders, nor any evolutionary pathology.\nGroup 5 comprised 13 subjects (8 women, 5 men) in an acute depressive phase, showing all symptoms of a major depressive disorder in the sense of DSM III.\nGroup 6 comprised 13 schizophrenic subjects (6 women, 7 men), according to DSM III criteria.\nThe diagnosis was established by means of a structured examination for affective disorders, schizophrenia and dementia, performed on each patient by two different psychiatrists. Any patient with a history of serious attendant illnesses, such as high blood pressure, diabetes, or other endocrineous pathologies, with distorted clinical or biological results, were excluded from the study. The patients received no medicaments 4 days prior to the experiment, except for 5 mg nitrazepam or 0.25 mg trazolam in the evening. All subjects participated voluntarily in the experiment and 5 were advised of its purpose. A single dose of 40 mg 5-methoxypsoralen (5-MOP) was given orally to all subjects at 8:00 p.m. To avoid any photosensitivity effects due to psoralen, patients were maintained in total darkness or under weak illumination (without UV) for at least 9 hours after 5-MOP intake (corresponding to the sleep period).\nBlood samples were taken at 8:00 p.m., prior to 5-MOP administration, and again at 11:00 p.m., by means of a stationary catheter attached to the forearm at least twenty minutes before extraction of the first blood sample. Samples were immediately centrifugated at 4° C. and refrigerated at -20° C. until quantitative analysis. Plasma levels were evaluated by radioimmunology after extraction in diethylether, using the #method of Treifenaueret, Andres.\nMelatonin levels were established and compared within each group by means of paired t-tests, and between groups by unpaired t-tests.\nBecause age could influence endocrinous responses, only groups with similar age means were compared in these experiments.\n\" melatonin\" has been defined as the difference between melatonin levels after 5-MOP intake and the corresponding baseline values. The parameter \"p\" measures the significance of the difference between two values."}, "[4]": {"test": "Acute oral toxicity, single administration, 14 days observation", "conditions": "in vivo, 2% carboxymethylcellulose with 5% Tween 80", "method": "Animal trials were performed with mice and male rats free from specific pathogenic organisms, subject to a preliminary water diet for 18 hours. All animals were kept under observation during 14 days after a single oral administration, in order to detect any eventuality of toxic after effects. The median lethal dose LD50 and its confidence limits were computed by the graphic method of J. T. Litchfield and F. Wilcoxon.\nOral administration was used throughout the experiments, with an aqueous solution of 2% carboxymethylcellulose treated with Tween®80 (Difco or ICI) at 5% as dispersing agent."}},
  "note": "“Also recorded” adds a separate entry of the source.",
  "data": [
    {"smiles": "COc1c2ccoc2cc2oc(=O)ccc12", "note": "[5-MOP, 4-methoxy-7H-furo[3,2-g][1]benzopyran-7-one]", "values": [
      {"measurement": "retinal sensitivity to light", "setting": "plasma melatonin [1]; humans, acute effect", "value": "increases"},
      {"measurement": "plasma melatonin levels / melatonin secretion (in words)", "setting": "plasma melatonin [1]; humans, sane subjects, earlier reports", "value": "increased melatonin secretion; also recorded: increases in plasma melatonin levels"},
      {"measurement": "effect on other endocrine hormones", "setting": "plasma melatonin [1]; perfectly sane human subjects", "value": "no discernible effect"},
      {"measurement": "tolerance in toxicological tests (general condition, hematological, anatomicopathological, skin and eye, clinical chemolysis)", "setting": "rabbits", "value": "good tolerance"},
      {"measurement": "side effects", "setting": "[2]; 40 mg daily oral, one week", "value": "no patient treated with 5-MOP suffered side effects"},
      {"measurement": "treatment period to obtain the same improvement in behavior", "setting": "[2]; 5-MOP composition compared with tricyclics", "value": "one"},
      {"measurement": "HDRS J7", "setting": "[2]; 17 HDRS items, 40 mg daily oral 9:00 p.m., one week, n=12, HDRS J0 21.92 ± 8.21, W 3.5, p 0.01, placebo J7 21.16 ± 5.02", "value": "16.67 ± 7.99"},
      {"measurement": "improvement of depressive state (in words)", "setting": "[2]; after a week of treatment, 40 mg daily oral, vs placebo", "value": "significant improvement; also recorded: rapid improvement from depression; also recorded: significantly improves the depressive state"},
      {"measurement": "effect without UVA irradiation", "setting": "[2]; without irradiation of patients by UVA", "value": "full effect"},
      {"measurement": "Delta Melatonin", "setting": "plasma melatonin [3]; Control 1 (elderly sane)", "value": "0.22 ± 0.11", "unit": "nmd/1"},
      {"measurement": "Melatonin (11:00 p.m.)", "setting": "plasma melatonin [3]; Control 1 (elderly sane, n=13), baseline 8:00 p.m. 0.19 ± 0.05", "value": "0.42 ± 0.12", "unit": "nmd/1"},
      {"measurement": "Delta Melatonin", "setting": "plasma melatonin [3]; Control 2 (middle-aged sane)", "value": "0.20 ± 0.08", "unit": "nmd/1"},
      {"measurement": "Melatonin (11:00 p.m.)", "setting": "plasma melatonin [3]; Control 2 (middle-aged sane, n=13), baseline 8:00 p.m. 0.16 ± 0.04", "value": "0.36 ± 0.09", "unit": "nmd/1"},
      {"measurement": "Delta Melatonin", "setting": "plasma melatonin [3]; Control 3 (young sane)", "value": "0.21 ± 0.09", "unit": "nmd/1"},
      {"measurement": "Melatonin (11:00 p.m.)", "setting": "plasma melatonin [3]; Control 3 (young sane, n=13), baseline 8:00 p.m. 0.16 ± 0.05", "value": "0.36 ± 0.11", "unit": "nmd/1"},
      {"measurement": "correlation between melatonin levels and absolute 5-MOP content", "setting": "plasma melatonin [3]; at the dosage used (40 mg)", "value": "No correlation was observed"},
      {"measurement": "melatonin levels after 5-MOP intake (in words)", "setting": "plasma melatonin [3]; control groups, vs before intake, t=4.59, p<0.01, t=4.18, p<0.001, t<3.92, p<0.001", "value": "substantially higher"},
      {"measurement": "Melatonin (11:00 p.m.)", "setting": "plasma melatonin [3]; dements (n=13), baseline 8:00 p.m. 0.21 ± 0.06, t=3.34, p<0.01", "value": "0.30 ± 0.08", "unit": "nmd/1"},
      {"measurement": "mean delta melatonin vs control group (in words)", "setting": "plasma melatonin [3]; dements vs elderly control group, r=2.4, p<0.03", "value": "substantially lower"},
      {"measurement": "Delta Melatonin", "setting": "plasma melatonin [3]; dements, vs Control 1 t/p 2.4/0.025", "value": "0.09 ± 0.06", "unit": "nmd/1"},
      {"measurement": "Melatonin (11:00 p.m.)", "setting": "plasma melatonin [3]; depressives (n=13), baseline 8:00 p.m. 0.22 ± 0.06, t=2.29, p<0.05", "value": "0.39 ± 0.15", "unit": "nmd/1"},
      {"measurement": "mean delta melatonin vs control group (in words)", "setting": "plasma melatonin [3]; depressives vs control group, r=0.59, p<0.05, not significant", "value": "slightly lower"},
      {"measurement": "Delta Melatonin", "setting": "plasma melatonin [3]; depressives, vs Control 2 t/p 0.59/0.562", "value": "0.17 ± 0.09", "unit": "nmd/1"},
      {"measurement": "plasma melatonin levels after administration (in words)", "setting": "plasma melatonin [3]; psychiatric subjects", "value": "significant rise; also recorded: significant increase"},
      {"measurement": "Melatonin (11:00 p.m.)", "setting": "plasma melatonin [3]; schizophrenics (n=13), baseline 8:00 p.m. 0.21 ± 0.09, t=8.31, p<0.0001", "value": "0.48 ± 0.09", "unit": "nmd/1"},
      {"measurement": "Delta Melatonin", "setting": "plasma melatonin [3]; schizophrenics, vs Control 3 t/p 0.58/0.567", "value": "0.15 ± 0.05", "unit": "nmd/1"},
      {"measurement": "side-effects", "setting": "plasma melatonin [3]; single 40 mg oral dose, all groups", "value": "No patient exhibited side-effects"},
      {"measurement": "LD50 at 336 h", "setting": "[4]; mouse, male mice", "value": 8100, "unit": "mg/kg"},
      {"measurement": "LD50 at 336 h", "setting": "[4]; rat, male rats", "value": "> 30000", "unit": "mg/kg"}
    ]},
    {"smiles": "COc1c2occc2cc2ccc(=O)oc12", "note": "[8-methoxypsoralen, reference compound]", "values": [
      {"measurement": "LD50 at 336 h", "setting": "[4]; mouse, male mice", "value": 875, "unit": "mg/kg"},
      {"measurement": "LD50 at 336 h", "setting": "[4]; rat, male rats", "value": 4400, "unit": "mg/kg"}
    ]}
  ]
}
